Data on 27 molecules can be found in patent publication US20260055113A1, “HETEROARYL COMPOUNDS FOR THE TREATMENT OF CANCER” (Hoffmann-La Roche Inc., priority 2022, published 2026).

The target of one data set is CD73 (Homo sapiens (Human), UniProt P21589). Kind of data set: CD73 cellular assay (MDA-MB-231 cells, malachite readout). Type of data set: cell-based. As to conditions: AMP substrate, 45 min, read-out: Cellular IC50 against CD73. As to the method:
After incubating with compounds for 30 minutes, 40 μL of AMP working solution (200 μM AMP in assay buffer) was added into each well in the assay plate. The assay plate was then incubated in a 5% CO2 incubator (Thermo Fisher Scientific) at 37° C. for 45 min. After the reaction was completed, 50 μL of the supernatants was collected and transferred into a new 384 well plate. 10 μL of Malachite A was added to each well in the assay plate and incubated for 10 minutes. 10 μL of Malachite B was then added to each corresponding well of the plate and incubated for 30 minutes.

Data set [1] in a line: Human microsomal stability assay. Type of data set: in vitro ADME. As to conditions: human liver microsomes 0.5 mg/mL, 1 μM test compound, 37° C., pH 7.4. As to the method:
Human liver microsomes (Cat. NO.: 452117, Corning, USA) were preincubated with test compound for 10 minutes at 37° C. in 100 mM potassium phosphate buffer, pH 7.4. The reactions were initiated by adding NADPH regenerating system. The final incubation mixtures contained 1 μM test compound, 0.5 mg/mL liver microsomal protein, 1 mM MgCl2, 1 mM NADP, 1 unit/mL isocitric dehydrogenase and 6 mM isocitric acid in 100 mM potassium phosphate buffer, pH 7.4. After incubation times of 0, 3, 6, 9, 15 and 30 minutes at 37° C., 300 μL of cold ACN (including internal standard) was added to 100 μL incubation mixture to terminate the reaction. Following precipitation and centrifugation, 100 μL supernatant will be taken out and added 300 μL water. The amount of compound remaining in the samples was determined by LC-MS/MS. Controls of no NADPH regenerating system at zero and 30 minutes were also prepared and analyzed. The results were categorized as: low (<7.0 mL/min/kg), medium (7.0-16.2 mL/min/kg) and high (16.2-23.2 mL/min/kg).
Background: Liver microsomes are a subcellular fraction often used to study metabolism.

Chain of CD73 (P21589 27-574): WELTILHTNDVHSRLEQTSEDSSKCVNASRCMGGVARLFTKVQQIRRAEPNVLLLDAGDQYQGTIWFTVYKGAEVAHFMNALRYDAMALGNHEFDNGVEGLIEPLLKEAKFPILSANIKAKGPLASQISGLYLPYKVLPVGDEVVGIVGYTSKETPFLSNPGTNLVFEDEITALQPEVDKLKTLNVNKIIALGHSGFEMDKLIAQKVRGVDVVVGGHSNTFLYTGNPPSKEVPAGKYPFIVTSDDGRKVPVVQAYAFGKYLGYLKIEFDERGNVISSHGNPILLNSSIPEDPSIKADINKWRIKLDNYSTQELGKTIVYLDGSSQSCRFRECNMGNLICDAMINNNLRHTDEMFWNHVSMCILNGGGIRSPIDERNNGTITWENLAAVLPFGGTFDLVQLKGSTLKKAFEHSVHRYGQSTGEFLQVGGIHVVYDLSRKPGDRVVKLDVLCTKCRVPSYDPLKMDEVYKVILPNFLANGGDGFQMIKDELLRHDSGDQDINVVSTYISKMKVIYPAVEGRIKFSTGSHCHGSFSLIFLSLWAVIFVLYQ

Consider `Cc1nn(C)c2nnc(-c3c[nH]c(=O)[nH]c3=O)cc12` [Example 1, 5-(1,3-dimethylpyrazolo[3,4-c]pyridazin-5-yl)-1H-pyrimidine-2,4-dione], for which, on CD73, the IC50 turned out to be 56.9 nM. Besides, the “CL (h)” value in data set [1] is listed as 8.14 mL/min/kg.
Consider `Cn1ncc2nnc(-c3c[nH]c(=O)[nH]c3=O)cc21` [Example 3, 5-(1-methylpyrazolo[4,3-c]pyridazin-6-yl)-1H-pyrimidine-2,4-dione], for which the IC50 on CD73 amounted to 104 nM.
As to `Cn1nnc2nnc(-c3c[nH]c(=O)[nH]c3=O)cc21` [Example 4, 5-(1-methyltriazolo[4,5-c]pyridazin-6-yl)-1H-pyrimidine-2,4-dione], the IC50 on CD73 is 159 nM. The “CL (h)” value in data set [1] was determined as 6.15 mL/min/kg.
Regarding `Cn1nc(C2(c3ccccc3)CC2)c2cc(-c3c[nH]c(=O)[nH]c3=O)nnc21` [Example 6, 5-[1-methyl-3-(1-phenylcyclopropyl)pyrazolo[3,4-c]pyridazin-5-yl]-1H-pyrimidine-2,4-dione], the IC50 at CD73 is 12.9 nM. The “CL (h)” value in data set [1] turned out to be 6.15 mL/min/kg.
`Cn1nc(Cl)c2nnc(-c3c[nH]c(=O)[nH]c3=O)cc21` [Example 9, 5-(3-chloro-1-methyl-pyrazolo[4,3-c]pyridazin-6-yl)-1H-pyrimidine-2,4-dione]: the half-maximal inhibitory concentration (IC50) at CD73 is 46.7 nM. Moreover, the “CL (h)” value in data set [1] was determined as 6.15 mL/min/kg.
`CC(Oc1nn(C)c2nnc(-c3c[nH]c(=O)[nH]c3=O)cc12)c1cccc(C#N)c1` (stereo not shown) [Example 11, 3-[1-[5-(2,4-dioxo-1H-pyrimidin-5-yl)-1-methyl-pyrazolo[3,4-c]pyridazin-3-yl]oxyethyl]benzonitrile]: the IC50 at CD73 was 2.9 nM. Besides, in data set [1], the “CL (h)” value came out at 6.15 mL/min/kg.
As to `CC(Oc1nn(C)c2nnc(-c3c[nH]c(=O)[nH]c3=O)cc12)c1ccc(C#N)cc1` (stereo not shown) [Example 12, 4-[1-[5-(2,4-dioxo-1H-pyrimidin-5-yl)-1-methyl-pyrazolo[3,4-c]pyridazin-3-yl]oxyethyl]benzonitrile], the IC50 at CD73 came out at 3.4 nM. Besides, the “CL (h)” value in data set [1] was 6.15 mL/min/kg.
In the case of `CC(Oc1nn(C)c2nnc(-c3c[nH]c(=O)[nH]c3=O)cc12)c1ccccc1Cl` (stereo not shown) [Example 13, 5-[3-[1-(2-chlorophenyl)ethoxy]-1-methyl-pyrazolo[3,4-c]pyridazin-5-yl]-1H-pyrimidine-2,4-dione], the IC50 at CD73 was determined as 5.5 nM. Also, the “CL (h)” value in data set [1] amounted to 7.84 mL/min/kg.
Take `CC(Oc1nn(C)c2nnc(-c3c[nH]c(=O)[nH]c3=O)cc12)c1cccc(Cl)c1` (stereo not shown) [Example 14, 5-[3-[1-(3-chlorophenyl)ethoxy]-1-methyl-pyrazolo[3,4-c]pyridazin-5-yl]-1H-pyrimidine-2,4-dione]: the 50% inhibitory concentration (IC50) at CD73 amounted to 4 nM. In addition, the “CL (h)” value in data set [1] came to 7.01 mL/min/kg.
`CC(Oc1nn(C)c2nnc(-c3c[nH]c(=O)[nH]c3=O)cc12)c1ccc(Cl)cc1` (stereo not shown) [Example 15, 5-[3-[1-(4-chlorophenyl)ethoxy]-1-methyl-pyrazolo[3,4-c]pyridazin-5-yl]-1H-pyrimidine-2,4-dione]: the IC50 on CD73 was found to be 4.1 nM. Moreover, in data set [1], the “CL (h)” value is 6.15 mL/min/kg.
On to `CC(Oc1nn(C)c2nnc(-c3c[nH]c(=O)[nH]c3=O)cc12)c1ccc(F)cc1` (stereo not shown) [Example 16, 5-[3-[1-(4-fluorophenyl)ethoxy]-1-methyl-pyrazolo[3,4-c]pyridazin-5-yl]-1H-pyrimidine-2,4-dione], for which the IC50 at CD73 was found to be 3.5 nM. Also, in data set [1], the “CL (h)” value is recorded as 6.15 mL/min/kg.
For `CC(Oc1nn(C)c2nnc(-c3c[nH]c(=O)[nH]c3=O)cc12)c1ccccn1` (stereo not shown) [Example 17, 5-[1-methyl-3-[1-(2-pyridyl)ethoxy]pyrazolo[3,4-c]pyridazin-5-yl]-1H-pyrimidine-2,4-dione], the concentration for half-maximal inhibition (IC50) at CD73 was 3.7 nM. In data set [1], the “CL (h)” value is 6.15 mL/min/kg.
Consider `CC(Oc1nn(C)c2nnc(-c3c[nH]c(=O)[nH]c3=O)cc12)c1cccnc1` (stereo not shown) [Example 18, 5-[1-methyl-3-[1-(3-pyridyl)ethoxy]pyrazolo[3,4-c]pyridazin-5-yl]-1H-pyrimidine-2,4-dione], for which, at CD73, the half-inhibitory concentration (IC50) was found to be 4.3 nM. In addition, the “CL (h)” value in data set [1] is given as 6.22 mL/min/kg.
For the molecule `CC(Oc1nn(C)c2nnc(-c3c[nH]c(=O)[nH]c3=O)cc12)c1ccncc1` (stereo not shown) [Example 19, 5-[1-methyl-3-[1-(4-pyridyl)ethoxy]pyrazolo[3,4-c]pyridazin-5-yl]-1H-pyrimidine-2,4-dione], the IC50 at CD73 was 3.9 nM. Also, the “CL (h)” value in data set [1] turned out to be 9.03 mL/min/kg.
As for `CC(Oc1nn(C)c2nnc(-c3c[nH]c(=O)[nH]c3=O)cc12)c1cccc(C(F)(F)F)c1` (stereo not shown) [Example 20, 5-[1-methyl-3-[1-[3-(trifluoromethyl)phenyl]ethoxy]pyrazolo[3,4-c]pyridazin-5-yl]-1H-pyrimidine-2,4-dione], the IC50 at CD73 stood at 6.9 nM. For the same molecule, in data set [1], the “CL (h)” value is 6.36 mL/min/kg.
Take `Cc1cnc(C(C)Oc2nn(C)c3nnc(-c4c[nH]c(=O)[nH]c4=O)cc23)s1` (stereo not shown) [Example 22, 5-[1-methyl-3-[1-(5-methylthiazol-2-yl)ethoxy]pyrazolo[3,4-c]pyridazin-5-yl]-1H-pyrimidine-2,4-dione]: the IC50 at CD73 turned out to be 3.9 nM. The “CL (h)” value in data set [1] worked out at 8.14 mL/min/kg.
As to `CC(Oc1nn(C)c2nnc(-c3c[nH]c(=O)[nH]c3=O)cc12)c1nn(C)cc1Cl` (stereo not shown) [Example 23, 5-[3-[1-(4-chloro-1-methyl-pyrazol-3-yl)ethoxy]-1-methyl-pyrazolo[3,4-c]pyridazin-5-yl]-1H-pyrimidine-2,4-dione], the IC50 at CD73 came to 58.6 nM.
For the molecule `CC(Oc1nn(C)c2nnc(-c3c[nH]c(=O)[nH]c3=O)cc12)c1ccnn1C` (stereo not shown) [Example 24, 5-[1-methyl-3-[1-(2-methylpyrazol-3-yl)ethoxy]pyrazolo[3,4-c]pyridazin-5-yl]-1H-pyrimidine-2,4-dione], the IC50 on CD73 was 19.6 nM. Besides, the “CL (h)” value in data set [1] amounted to 6.26 mL/min/kg.
The like results for `CC(Oc1nn(C)c2nnc(-c3c[nH]c(=O)[nH]c3=O)cc12)c1nc2ccccc2o1` (stereo not shown) [Example 25, 5-[3-[1-(1,3-benzoxazol-2-yl)ethoxy]-1-methyl-pyrazolo[3,4-c]pyridazin-5-yl]-1H-pyrimidine-2,4-dione] were, in that order, 8 nM and 8.85 mL/min/kg.
Consider `CC(N(C)c1nn(C)c2nnc(-c3c[nH]c(=O)[nH]c3=O)cc12)C(C)(C)C` (stereo not shown) [Example 34, 5-[1-methyl-3-[methyl(1,2,2-trimethylpropyl)amino]pyrazolo[3,4-c]pyridazin-5-yl]-1H-pyrimidine-2,4-dione], for which the IC50 at CD73 was 5.5 nM.
Consider `CC(C1CCCC1)N(C)c1nn(C)c2nnc(-c3c[nH]c(=O)[nH]c3=O)cc12` (stereo not shown) [Example 35, 5-[3-[1-cyclopentylethyl(methyl)amino]-1-methyl-pyrazolo[3,4-c]pyridazin-5-yl]-1H-pyrimidine-2,4-dione], for which the IC50 at CD73 was 2.1 nM.
`C[C@H](Nc1nn(C)c2nnc(-c3c[nH]c(=O)[nH]c3=O)cc12)c1ccccc1` [Example 37, 5-[1-methyl-3-[[(1S)-1-phenylethyl]amino]pyrazolo[3,4-c]pyridazin-5-yl]-1H-pyrimidine-2,4-dione]: the IC50 at CD73 came to 4 nM. In addition, the “CL (h)” value in data set [1] came out at 6.15 mL/min/kg.
Turning to `Cc1cccc([C@H](C)Oc2nn(C)c3nnc(-c4c[nH]c(=O)[nH]c4=O)cc23)n1` [Example 41, 5-[1-methyl-3-[(1S)-1-(6-methyl-2-pyridyl)ethoxy]pyrazolo[3,4-c]pyridazin-5-yl]-1H-pyrimidine-2,4-dione], the “CL (h)” value in data set [1] is recorded as 8.11 mL/min/kg.
For `Cc1ccnc([C@H](C)Oc2nn(C)c3nnc(-c4c[nH]c(=O)[nH]c4=O)cc23)c1` [Example 42, 5-[1-methyl-3-[(1S)-1-(4-methyl-2-pyridyl)ethoxy]pyrazolo[3,4-c]pyridazin-5-yl]-1H-pyrimidine-2,4-dione], at CD73, the IC50 is 4.1 nM. Moreover, the “CL (h)” value in data set [1] worked out at 7.78 mL/min/kg.
Turning to `C[C@H](Oc1nn(C)c2nnc(-c3c[nH]c(=O)[nH]c3=O)cc12)c1ccc(F)cn1` [Example 43, 5-[3-[(1S)-1-(5-fluoro-2-pyridyl)ethoxy]-1-methyl-pyrazolo[3,4-c]pyridazin-5-yl]-1H-pyrimidine-2,4-dione], the IC50 at CD73 turned out to be 3.7 nM. For the same molecule, in data set [1], the “CL (h)” value amounted to 6.15 mL/min/kg.
On to `C[C@H](Oc1nn(C)c2nnc(-c3c[nH]c(=O)[nH]c3=O)cc12)c1cccc(Cl)n1` [Example 44, 5-[3-[(1S)-1-(6-chloro-2-pyridyl)ethoxy]-1-methyl-pyrazolo[3,4-c]pyridazin-5-yl]-1H-pyrimidine-2,4-dione], for which the IC50 on CD73 worked out at 2.3 nM. Also, the “CL (h)” value in data set [1] is listed as 6.15 mL/min/kg.
Consider `C[C@H](Oc1nn(C)c2nnc(-c3c[nH]c(=O)[nH]c3=O)cc12)c1ccc(Cl)nn1` [Example 45, 5-[3-[(1S)-1-(6-chloropyridazin-3-yl)ethoxy]-1-methyl-pyrazolo[3,4-c]pyridazin-5-yl]-1H-pyrimidine-2,4-dione], for which the IC50 at CD73 came out at 9.9 nM. In data set [1], the “CL (h)” value was 6.15 mL/min/kg.

A word on the IC50: it is the concentration at which inhibition is half-maximal.
